Test results from PubChem BioAssay (NCI).
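These data come from cells grown in 96-well plates and exposed to compound for 48 hours at five concentrations. TGI marks complete inhibition of growth.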

Legend:
Assay in all cases: NCI tumour cell line growth inhibition, 48 h
[1] = system: MDA-MB-435
[2] = system: HS 578T breast
[3] = system: SF-539 CNS
[4] = system: OVCAR-8 ovarian
[5] = system: IGROV1 ovarian
[6] = system: LOX IMVI melanoma
[7] = system: SK-MEL-2 melanoma
[8] = system: T-47D breast
[9] = system: MCF7 breast
[10] = system: HOP-92 NSCLC
[11] = system: A549 NSCLC
[12] = system: MALME-3M melanoma
[13] = system: A498 renal
[14] = system: SF-268 CNS

Measured: TGI

C=C1CC(Cn2cc(C)c(=O)[nH]c2=O)(c2ccc(-c3ccccc3)cc2)OC1=O (stereo not given)
16.9 µM: [13]
3.74 µM: [1] | [5]
5.87 µM: [9]
4.19 µM: [7]
> 21.2 µM: [2]
5.51 µM: [8]
3.49 µM: [6]
6.81 µM: [12]
4.98 µM: [4]
8.38 µM: [3]
5.62 µM: [14]
23 µM: [11]
3.75 µM: [10]

Cc1cc2c(cc1C)[n+](=O)c(N1CCN(c3ccc([N+](=O)[O-])cc3)CC1)c(C#N)n2[O-]
66 µM: [7]
56.7 µM: [10]
49.8 µM: [4]
63.7 µM: [8]
not listed: [3]
> 100 µM: all other assays above

CSc1nc2c(N)ncnc2n1C
not listed: [10]
> 100 µM: all other assays above

CCn1c(=O)ccc2ccc(N(CCO)CCO)nc21
not listed: [3] | [6] | [10]
> 100 µM: all other assays above

CCCCCC(=O)OCC1(CO)C/C(=C\CC(C(C)C)C(C)C)C(=O)O1 (stereo not given)
76.2 µM: [4]
70 µM: [6]
not listed: [3]
> 100 µM: all other assays above

CCN(CC)C(=S)SC1CCOP(=O)(N(CCCl)CCCl)N1C (stereo not given)
56.6 µM: [3]
43.9 µM: [10]
98.6 µM: [14]
45.9 µM: [12]
49.2 µM: [4]
45.3 µM: [7]
> 53.1 µM: [5]
not listed: [6]
> 100 µM: all other assays above

COC(=O)NN=C(c1ccc(Cl)cc1)c1ccc(Cl)cc1
not listed: [10]
> 100 µM: all other assays above

Cc1ccc2c(=O)c(-c3nnc(N)s3)c[nH]c2n1
not listed: [3] | [10]
> 100 µM: all other assays above

CCOC(=O)c1cccc([N+](=O)[O-])c1N
not listed: [14]
> 100 µM: all other assays above
